{
  "source": "patent US20220323411A1",
  "about": "“COMPOSITIONS FOR THE TREATMENT OF SOLID TUMORS” (Raziel Therapeutics Ltd., priority 2019, published 2022)",
  "key": {"A549 cells [1]": {"system": "A549 cells", "test": "Xenograft Study 1: A549 subcutaneous tumors in nude mice, intratumoral injection", "format": "in vivo", "conditions": "for Tumor volume 3 weeks after injection (mm^3 ± S.E.M.): first dose day 25, double dose day 32, mean, N=10, initial volume 496; for Reduction in tumor volume vs. vehicle (%): 3 weeks after injection", "method": "A549 cells were injected subcutaneously to nude mice and allowed to grow to an estimated tumor volume of about 500 mm^3 as determined by caliper. The mice were divided into four groups (N=10 per group), dosed twice via intratumoral injection with either a vehicle (comprising water for injection, benzyl alcohol, propylene glycol, and Tween-80) or with 1 mg, 2.5 mg, or 5 mg of 5-(3, 6-dibromo-9H-carbazol-9-yl)-N,N,N-trimethylpentan-1-aminium chloride according to the experimental design shown in Table 1 below:\n(§1) For three weeks post-injection, tumor size was determined by caliper and tumor volume was calculated. Mean tumor volumes for the various cohorts are summarized in Table 2 below and graphically in FIG. 1 (arrows indicate treatment days), while the mice's change in body weight is summarized in FIG. 2."}, "A549 cells [2]": {"system": "A549 cells", "test": "Xenograft Study 2: A549 subcutaneous tumors in nude mice, intratumoral injection", "format": "in vivo", "method": "A549 cells were injected subcutaneously to nude mice and allowed to grow to an estimated tumor volume of about 300 mm^3 as determined by caliper. The mice were divided into three groups (N=10 per group), dosed three times via intratumoral injection with either a vehicle (comprising water for injection, benzyl alcohol, propylene glycol, and Tween-80) or with 5 mg of […])-N,N,N-trimethylpentan-1-aminium chloride, or not injected at all, according to the experimental design shown in Table 3 below:\nas §1, with “Median” for “Mean”, “4” for “2”, “3” for “1”, “4.” for “2.”"}, "[3]": {"conditions": "5 mg intratumoral, dosed three times"}},
  "note": "Marks after values point to notes of the source that are not given here.",
  "data": [
    {"smiles": "C[N+](C)(C)CCCCCn1c2ccc(Br)cc2c2cc(Br)ccc21", "note": "[Test Compound, 5-(3,6-dibromo-9H-carbazol-9-yl)-N,N,N-trimethylpentan-1-aminium chloride]", "values": [
      {"measurement": "Tumor volume 3 weeks after injection (mm^3 ± S.E.M.)", "setting": "A549 cells [1]; 1 mg/mouse intratumoral", "value": "1753 (±80) mm^3"},
      {"measurement": "Reduction in tumor volume vs. vehicle (%)", "setting": "A549 cells [1]; 1 mg/mouse intratumoral, P-value vs. vehicle 0.86", "value": 7.7, "unit": "%"},
      {"measurement": "Tumor volume 3 weeks after injection (mm^3 ± S.E.M.)", "setting": "A549 cells [1]; 2.5 mg/mouse intratumoral", "value": "1512 (±149) mm^3"},
      {"measurement": "Reduction in tumor volume vs. vehicle (%)", "setting": "A549 cells [1]; 2.5 mg/mouse intratumoral, P-value vs. vehicle 0.17", "value": 20.4, "unit": "%"},
      {"measurement": "Effect on mouse body weight", "setting": "A549 cells [1]; 5 mg intratumoral, dosed twice", "value": "did not affect mouse body weight"},
      {"measurement": "Effect on tumor size", "setting": "A549 cells [1]; 5 mg intratumoral, dosed twice", "value": "significantly reduced tumor size"},
      {"measurement": "Tumor volume 3 weeks after injection (mm^3 ± S.E.M.)", "setting": "A549 cells [1]; 5 mg/mouse intratumoral", "value": "1309 (±229) mm^3"},
      {"measurement": "Reduction in tumor volume vs. vehicle (%)", "setting": "A549 cells [1]; 5 mg/mouse intratumoral, P-value vs. vehicle 0.03", "value": "31.1* %"},
      {"measurement": "Effect on mouse body weight", "setting": "A549 cells [2]; [3]", "value": "did not affect mouse body weight"},
      {"measurement": "Effect on tumor size", "setting": "A549 cells [2]; [3]", "value": "significantly reduced tumor size"},
      {"measurement": "Reduction in tumor volume vs. non-injected group (%)", "setting": "A549 cells [2]; 5 mg/mouse intratumoral once a week for 3 weeks, P-value vs. non-injected group 0.02", "value": "46* %"},
      {"measurement": "Tumor volume 3 weeks after injection (median)", "setting": "A549 cells [2]; 5 mg/mouse intratumoral once a week for 3 weeks, median, N=10, initial volume 287", "value": 648, "unit": "mm³"}
    ]}
  ]
}
